The results in this text go back to US4043759A (priority 1976, dated 1977).

Molecules are shown by their SMILES.

The data set in a line: Methotrexate concentration in patient serum as function of time after injection, by the radioassay. The format is in vivo. On the procedure: The preparation of patient samples, such as patient serum and spinal fluid, is as follows:
1. Take 0.3 ml of fluid to be tested and add to 2.7 ml Buffer B to provide a 1:10 dilution.
2. Take 0.3 ml of 1:10 dilution and add to 2.7 ml of Buffer B to provide a 1:100 dilution.
3. Take 0.3 ml of 1:100 dilution and add to 2.7 ml Buffer B to provide a 1:1000 dilution.
4. Take 0.3 ml of 1:1000 dilution and add to 2.7 ml Buffer B to provide 1:10,000 dilution.
6. Centrifuge for 1 or 2 minutes at 2500 × g.
7. Decant supernate liquid into clean tubes.

On to `CN(Cc1cnc2nc(N)nc(N)c2n1)c1ccc(C(=O)N[C@@H](CCC(=O)O)C(=O)O)cc1` [Methotrexate], for which the “Concentration of Methotrexate” value (after infusion) was 66000 ng/mL. Under “human, 24 hours after injection”, this compound displayed a concentration at 24 h of 7200 ng/mL. Under “human, 48 hours after injection”, the concentration at 48 h was 420 ng/mL. Also, under “human, 63 hours after injection”, the concentration at 63 h was found to be 290 ng/mL. The compound also gave a concentration at 72 h (human, 72 hours after injection) of 200 ng/mL.
